Laboratory results as given in patent publication US20260133203A1, “DETECTION OF FUMARATE-DERIVED MODIFICATION IN A TEST SAMPLE” (UNIVERSITY OF SOUTH CAROLINA, priority 2017, published 2026).
Where a name gives a salt, the structure may show the parent alone.

Experiments:
neurons and astrocytes = experiment: LC-MS/MS identification of succinated proteins, neurons and astrocytes overall; assay type: cell-based; conditions: both neurons and astrocytes
Method: For the identification of succination sites, 60 μg of protein from primary neurons, 200 μg of protein from primary astrocytes or 120 μg of protein from differentiated N1E-115 neurons were resolved by SDS-PAGE, and the gels were stained with Coomassie Brilliant Blue. After de-staining, all protein bands were excised from the gels and subjected to in-gel digestion with trypsin. Briefly, proteins were reduced with 10 mM dithiothreitol and alkylated with 170 mM 4-vinylpyridine. Trypsin digestion was carried out overnight at 37° C. in the presence of 1.5 ng sequence grade modified trypsin (Promega®, Madison, WI) in 50 mM ammonium bicarbonate. After gel extraction, the peptides were re-suspended in 1% acetic acid and analyzed on a DionexTM […] system (Thermo ScientificTM, Rockford, IL) coupled to an Orbitrap Velos ProTM mass spectrometer (Thermo ScientificTM, Rockford, IL). The LC solvents were 2% acetonitrile/0.1% formic acid (Solvent A) and 80% acetonitrile/0.1% formic acid (Solvent B). […] The data-dependent acquisition (DDA) data were analyzed using Proteome DiscovererTM 1.4 software with SEQUEST search engine against the uniprot_ref_mouse database (2014-10-03 version, 52,474 proteins) or uniprot_ref_rat database (2011-5-11 version, 39765 proteins) with Xcorr>1 validation (+2) and an allowance for 2 missed cleavages. […]

[1] = test system: N1E-115 neuroblastoma cells differentiated to a neuronal phenotype; experiment: Western blot detection of succinated proteins with anti-2SC antibody after KOH hydrolysis of the ester; assay type: cell-based, mouse; conditions: DMF for 24 hours, hydrolysis of the ester in the presence of KOH
Method: N1E-115 cells (subclone N1E-115-1 neuroblastoma cells) were obtained from Sigma (08062511, St. Louis, MO). The cells were grown and expanded in non-differentiation medium (NDM): 90% DMEM (Gibco™, Grand Island, NY) with 25 mM glucose, no pyruvate, 25 mM HEPES, 4 mM glutamine and 10% fetal bovine serum (FBS, Atlanta Biologicals, Atlanta, GA). At 80% confluence, the cells were differentiated into neurons in the presence of 2% FBS and 1.25% dimethyl sulfoxide in DMEM for 5 days. In addition to the assessment of the neuronal phenotype by light microscopy, the detection of synaptophysin protein levels was used to confirm successful differentiation. During the final 6 or 24 hours of differentiation, the cells were treated with 10-100 µM DMF and harvested as described above for primary neurons, with the addition of phosphatase inhibitors to the DPBS washes and the RIPA buffer used for scraping to prevent dephosphorylation of CRMP-2. […] To ensure that the succinated proteins detected were solely of neuronal origin, N1E-115 neuroblastoma cells were differentiated to a neuronal phenotype (confirmed by increased synaptophysin content) and treated with DMF for 24 hours. […]

**Q.** For `COC(=O)/C=C/C(=O)OC` [DMF, dimethyl fumarate], which “number of distinct protein subunits directly modified by either DMF or MMF” value (neurons and astrocytes) is on record?
**A.** Its value is 24.

**Q.** And the “detection of succinated proteins using the anti-2SC antibody” value [1]?
**A.** The value was “detection of a large number of succinated proteins”.
